Measurements from patent US20240358829A1, “Lymphocyte Population and Methods for Producing Same” (AVM Biotechnology, LLC, priority 2021, published 2024).
“And” between values parts separate entries of the source, which are not always exact repeats. Identical values can stand only once. “Also recorded” adds a separate entry of the source. Like-named read-outs stand apart in the source and are kept apart here.

Legend:
[1] = AVM0703 R/R NHL clinical trial, blood counts; format: in vivo, human
[2] = system: AVM-NKT cells (CD45 dim, CD56 very bright); assay: Flow cytometry of human subjects treated with acute high doses of dexamethasone (Example 7); format: in vivo; conditions: prostate cancer patient, 6 mg/kg (fourth infusion)
[3] = Compassionate use patients treated with AVM0703; format: in vivo, human
[4] = system: CD56+γδTCR+ NKT-like cells
Experimental: For characterisation of the induced/mobilized population of NKT-like cells (AVM-NKT) in humans, whole blood from human subjects was drawn in K2 EDTA Vacutainer tube (367862, BD Biosciences, NJ) and shipped to AVM Biotechnology at room temperature. 100 μl of whole blood was stained with the following antibodies: CD45 AF700 (2D1), CD16 APC (3G8), INKT PECy7 (6B11), CD8 PE (SK1), CD14 FITC (M5E2), CD56 BV650 (5.1H11), γδTCR BV510 (B1), CD19 BV421 (HIB19), NKp44 APC (P44-8) (all from Biolegend, San Diego, CA) and CD3 APCVio770 (BW264/56), (Miltenyi Biotec, San Jose, CA), 7-AAD, (Biolegend, San Diego CA) was included to distinguish the live and dead cells. Antibody staining was performed for 15 minutes at room temperature. Erythrocytes present in the sample were lysed using BD FACS lyse (BD Biosciences, San Diego CA) for 10 minutes at room temperature, then washed and resuspended in 300 μl 1×DPBS CMF. Healthy patient blood from BloodWorks (Seattle, WA), unstained and fluorescence minus one (FMO) were included as controls. 250 μl sample was analyzed on MACSQuant 16 (Serial #40150, Miltenyi Biotec, San Jose, CA) flow cytometer. Data was analyzed using Kaluza 2.1 (Beckman Coulter Lifesciences, Indianapolis, IN) software for different immune population. Data obtained from flow cytometry analyzed by Kaluza were combined to determine different cell populations gated from Live CD45 Lymphocytes: CD3+ T cell, CD8+ cytotoxic T cell, CD3+CD56+ (NKT cells) CD3-CD56+, CD3-CD56bright (NK cells) and CD3-CD19+ (B cells), CD3+γδTCR+ cells, CD3+γδTCR bright cells, CD3+iTCR+ cells, Live WBC CD3-CD16bright granulocytes, Live WBC CD3-CD14+ monocytes. Numbers were reported as % WBC and as cells per μl.

[5] = system: AVM-NKT cells (CD3highCD49b+); format: in vivo, mouse
Text: Mice were anesthetized with isoflurane gas.

[6] = system: peripheral blood mononuclear cells or single cell splenocytes; assay: In vitro apoptosis of mononuclear cells or splenocytes incubated with AVM0703; format: cell-based, mouse; conditions: concentrations equivalent to in vivo peak blood concentrations of acute high dose, out to 72 hours
[7] = system: hCD45+CD56+γδTCR+invTCR+ cells; assay: Humanized mice experiments LYDEP 43 and 45, flow cytometry of blood and bone marrow; format: in vivo, mouse
Experimental: Female huNOG-EXL mice (n=6) were obtained from Taconic Bioscience (Germantown, NY). Female huCD34-NCG mice (n=8) were obtained from Charles River (Wilmington, MA). Mice from both facilities were acclimated to laboratory conditions for at least 5-6 days.
After first (03/01/2021) and second dose 1 week later (03/08/2021), when mice reached predetermined time point, they were bled up to 70 μL of blood/mouse via cheek puncture. The blood was analyzed via flow cytometry. After third dose 28 days after the previous dose (on Apr. 5, 2021), when mice reached the study time point, they were euthanized under standard operating procedure summarized here: Mice were anesthetized with isoflurane gas.
Spleen, Thymus, femurs, and sternum were collected for all mice. Spleen and thymus were processed into single cell suspension for analysis via flow cytometry. Bones were cleaned of muscle using gauze soaked with 70% ethanol and processed for bone marrow to analyze via flow cytometry. Pancreas and colon dissection were performed according to video and instructional JoVE files. The feces were expelled via administering ice-cold PBS with a 22-gauge gavage tube from colon. Other organs like small intestines, cecum, kidneys, lungs, and liver were also collected. All organ weights were recorded after removing excess liquid from the exterior. Soft organs were first fixed in 4% PFA and then transferred to 70% ethanol 24 hrs later and stored at 4° C. Bones were stored directly in 70% ethanol at 4° C. Blood was processed for flow cytometry analysis, and serum collection.
All flow cytometry was performed in house. Blood, spleen, thymus, and bone marrow were processed via standard staining protocol for flow cytometry. MACSQUANT 16 was used for flow cytometry. Antibody panels slightly varied between first, second and third dose. Markers in the flow panel after first dose analysis included Live/Dead, hCD45, mCD45, hCD56, hTCRgd, hCD3, hCD8, hCD16, hCD19, hCD14. Markers in the flow panel after second dose included all the above, plus hTCRab and hiTCR. In the blood analysis after second dose, 7AAD, CD14 and CD19 were included together in a dump channel. […] For the third dose panel design, when full sac was performed, all markers mentioned above were assigned unique channels to avoid overlap, but TCRab was not included in the final panel due to open channel limitations.
For cheek bleeds, 70 ul of blood was collected in EDTA coated microtainer and proceeded for immunostaining. […] Blood was stained for live dead marker for 10 min at Room temperature and then for the surface antibodies mentioned above for 20 minutes at room temperature in dark. RBCs were lysed with BD FACS lysing buffer and washed with DPBS and resuspended in 300 ul DBPS. 250 ul of sample was run on MACSquant 16 flow cytometer.

[8] = CR (Charles River) humanized mice, AVM0703 72 hrs
[9] = Tac (Taconic) humanized mice, AVM0703 72 hrs
[10] = blood, mouse 10 Taconic NOG-EXL, FIG. 24

C[C@@H]1C[C@H]2[C@@H]3CCC4=CC(=O)C=C[C@]4(C)[C@@]3(F)[C@@H](O)C[C@]2(C)[C@@]1(O)C(=O)COP(=O)(O)O [AVM0703, dexamethasone sodium phosphate]
WBCs, lymphocytes, platelets and RBCs ([1]; AVM0703-001 dose-escalation phase, doses between 6 mg/kg and 18 mg/kg): not depleted | hemoglobin ([1]; R/R MCL patient, after 9 mg/kg infusion): clinically significantly increased | Absolute lymphocyte counts (lymphocytosis) ([1]; patient 103-007 (mantle cell lymphoma), 12 mg/kg infusion, between day 4 and 7, 12 mg/kg): reduced to normal lymphocyte levels; also recorded: reduced lymphocytes | monocytes, platelets, hematocrit and RBCs ([1]; patient 103-007, 12 mg/kg): spares normal blood cells; also recorded: not reduced | neutrophils ([1]; patients in the AVM0703-001 trial in R/R NHL): some evidence of increased neutrophils | novel CD45dim CD56 very bright cell population in blood ([2]; 1 hour after infusion, 6 mg/kg): observed; also recorded: evident | novel CD45dim CD56 very bright cell population in blood ([2]; 3 hours after infusion): no longer observed | time to immune infiltrate (skin turning red over the tumor area) ([3]; compassionate use patient with CNS squamous cell carcinoma, after starting an 18 mg/kg infusion): ≤ 30 min | neutrophil production ([3]; compassionate use patient without neutrophils for 6 years): began making healthy active neutrophils | % of the CD56+ cells positive for both γδTCR and iTCR ([4]; lysed whole blood, FIG. 14): 51% | CD8 dim/-, % CD56+γδTCR+ ([4]; representative subject): ~98% | CD14+, % CD56+γδTCR+ ([4]; representative subject): 67% | CD16+, % CD56+γδTCR+ ([4]; representative subject): 86% | CD19+, % CD56+γδTCR+ ([4]; representative subject): 85% | NKp44 positive, % CD56+γδTCR+ ([4]; representative subject): ~97% | iNKT positive, % CD56+γδTCR+ ([4]; representative subject): ~96% | CD56+γδTCR+ cells, % of WBC ([4]; whole blood, within 30 minutes post infusion): 1.64% | CD16 and NKp46 expression, % of the AVM_NKT cells ([4]; γδTCR+iTCR+ quadrant, FIG. 14): ~100% | location of induced AVM-NKT cells ([5]; naïve male Balb/c mice, 48 hours after doses about 29 mg/kg and higher (given as DP)): Induced in Bone Marrow and Fat Tissue | location of induced AVM-NKT cells ([5]; naïve male C57Bl/6 mice): in blood | Presence of AVM-NKT cells, 48 hrs spleen ([5]; naïve mice): positive | apoptosis [6]: no apoptosis was observed | hCD45+(CD56+gdTCR+ inTCR+) [7, 8]: 4.4% and 1.8% and 2.3% and 3.5% | hCD45+(CD56+gdTCR+) [7, 8]: 4.7% and 6.3% and 1.1% and 1.6% | hCD45+(CD56+gdTCR+) ([7]; CR (Charles River) humanized mice, AVM0703 96 hrs): 1.1% and 0.4% and 4.4% and 1.4% | hCD45+(CD56+gdTCR+ inTCR+) [7, 9]: 0.7% | hCD45+(CD56+gdTCR+) [7, 9]: 10.5% and 3.4% | hCD45+(CD56+gdTCR+ inTCR+) ([7]; Tac (Taconic) humanized mice, AVM0703 96 hrs): 22.6% and 41.9% | % of hCD45+CD56+gdTCR+ cells expressing invariant TCR ([7]; blood, CRL-NCG humanized mice, >18 mg/kg HED): More than 97% | bi-specific immune cell mobilization, % of hCD45+ cells ([7]; blood, humanized mice, >18 mg/kg HED): 2-12% | % of hCD45+ dim CD56+ gdTCR+ cells positive for CD8 and for CD16 [7, 10]: More than 80% | CD56+ TCRγδ+ cells, % of hCD45+ cells [7, 10]: 12% | bi-specific immune cells, % of hCD45+ cells ([7]; blood, mouse M1, CRL-NCG, >18 mg/kg HED): 3.35% | bi-specific immune cells, % of hCD45+ cells ([7]; blood, mouse M3, CRL-NCG, >18 mg/kg HED): 4.13% | bi-specific immune cells, % of hCD45+ cells ([7]; blood, mouse M5, CRL-NCG, >18 mg/kg HED): 5.14% | bi-specific immune cells, % of hCD45+ cells ([7]; blood, mouse M7, CRL-NCG, >18 mg/kg HED): 2.37% | % of human CD45+CD56+ cells bispecific for TCRγδ and invariant TCR and CD16 positive ([7]; bone marrow, 48-60 hours after a third repeat dose of 32 mg/kg HED): More than 60% | expression and mobilization of human CD56+γδTCR+invTCR+ immune cells ([7]; both vendors, all 6 umbilical cord blood donors, 32 mg/kg DP oral): induced the expression and mobilization | % of bispecific γδTCR+invTCR+ bone marrow cells that are CD16+ ([7]; humanized mice, >18 mg/kg HED): Around 90% | bi-specific immune cells in bone marrow, % of hCD45+ cells ([7]; humanized mice, >18 mg/kg HED): 0.3-8.5%
